Assay [1] deals with LTC4 (lipoxygenase pathway). The assay is described as follows: in vivo murine zymosan peritonitis assay, LTC4. Details: species or system mouse (male CD-1). As to conditions: for ED50 LTC4: p.o., 1 hour prior to zymosan, standard drugs. The method, then:
(§1) The compounds of the invention are evaluated for their ability to inhibit the lipoxygenase and/or cyclooxygenase pathways of arachidonic acid metabolism in the in vivo murine zymosan peritonitis assay.
(§2) Male CD-1 mice (8 weeks old) are placed in plastic boxes in groups of six. Animals are injected with 1 mL i.p. of either 1% zymosan in pyrogen free 0.9% saline or saline (unstimulated control). Compounds are dosed orally 1 hour prior to zymosan injection. Twenty minutes after zymosan injection, the mice are asphyxiated by CO2 inhalation and the peritoneal cavity is lavaged with 2 mL ice cold Hanks Balanced Salt Solution (HBSS) without CaCl2, MgSO4. 7H2 O and MgCl2.6H2 O. Peritoneal lavage fluid from each mouse is removed by syringe and placed in 5 mL plastic test tubes put on ice and volume is noted. Preparation of samples for evaluation by ELISA is as follows: Samples are centrifuged at 800 xg for 15 minutes; 1 mL of the supernatant is added to 8 mL ice cold methanol and kept at -70° C. overnight to precipitate protein; and samples are then centrifuged at 800 xg for 15 minutes, followed by a drying procedure in a Savant speed vac concentrator. The samples are reconstituted with 1 mL ice cold ELISA buffer and stored at -70° C. until assayed. The assay for eicosanoids (LTC4 and 6-keto-PGF1α) is performed according to conventional ELISA procedures.
Compounds to be tested orally are suspended in 0.5% Tween 80. Compounds to be tested intraperitoneally are suspended in 0.5% methylcellulose in 0.9% saline.
(§3) The total metabolite level in lavage fluid/mouse is calculated and the significance is determined by a one-way analysis of variance with LSD comparisons to control (p≤0.05). Drug effects are expressed as a percent change from control values.

In assay [2] the test system is LTB4 synthesis by rat glycogen-elicited polymorphonuclear leukocytes (PMN). The assay is described as follows: inhibition of LTB4 synthesis by rat glycogen-elicited polymorphonuclear leukocytes (PMN). It counts as cell-based, rat (female Wistar). As to conditions: Leukocyte, at 10 μM. The source says:
This is especially true with respect to 5,12-diHETE, which is also denoted as LTB4 [see Ford-Hitchinson, J. Roy. […] Med., 74, 831 (1981)]. Compounds which inhibit the PLA2 -mediated release of arachidonic acid thereby effectively prevent the oxidation of arachidonic acid to the various leukotriene products via the lipoxygenase cascade. Accordingly, the specificity of action of PLA2 inhibitors can be determined by the activity of test compounds in this assay, which measures the ability of compounds to inhibit the synthesis of LTB4 by rat glycogen-elicited polymorphonuclear leukocytes (PMN) in the presence of exogenous substrate.
The assay is carried out as follows:
Rat polymorphonuclear leukocytes (PMNs) are obtained from female Wistar rats (150-200 g) which receive an injection of 6% glycogen (10 ml i.p.). Rats are sacrificed 18-24 hours post injection by CO2 asphyxiation and the elicited cells are harvested by peritoneal lavage using physiological saline (0.9% NaCl). The exudate is centrifuged at 400 xg for 10 minutes. The supernatant fluid is discarded and the cell pellet is resuspended to a concentration of 2.0×10^7 cells/mL in HBSS containing Ca^++ and Mg^++ and 10 μM L-cysteine.
To 1 mL aliquots of cell suspension, test drugs or vehicle are added, then preincubated at 37° C. for 10 minutes. A23187 (1 μM), [^3 H]-AA (3.0 μCi/mL) and unlabeled AA (1 μM) are then added and the samples are further incubated for 10 minutes. The reaction is terminated by centrifugation and pelleting cells. Supernatants are then analyzed by HPLC analysis on a 15 cm×4.6 mm ID supelcosil LC-18 (Supelco)(3M) column, using a two solvent system at a flow rate of 1.4 mL total flow as follows:
Gradient: (system is equilibrated with Solvent A)
Percent solvent changes are accomplished in a linear fashion.
Injections: 140 μL of each supernatant is injected directly onto column and ^3 H arachidonic acid metabolites are monitored using an on-line radioactivity detector (Ramona, IN/US, Fairfield, N.J.).
Standards: 10^4 -2.0×10^4 dpm of eicosanoids of interest are injected in 90 μL EtOH cocktail.
Results are expressed as percent inhibition at a given compound dose or as an IC50 value.

Assay [3] concerns 6-keto-PGF1α /TxB2 (cyclooxygenase pathway). The assay is described as follows: in vivo murine zymosan peritonitis assay, 6-keto-PGF1α. Further details: species or system mouse (male CD-1). The method, then: as §1
as §2, with “The samples are reconstituted with 1 mL ice cold ELISA buffer and stored at -70° C. until assayed. The assay for eicosanoids (LTC4 and 6-keto-PGF1α) is performed according to conventional ELISA procedures.” left out
as §3

Another assay relates to Cellular Influx. The assay is described as follows: reverse passive Arthus pleurisy assay, cellular influx. The format is in vivo, rat (male Lewis). As to conditions: Rattus norvegicus, po, 4 h, 1 hour prior to anti-BSA; standard drugs. The method, then: (§4) The compounds of the invention are further tested in the reverse passive Arthus pleurisy assay to evaluate their effectiveness in inflammatory mediator release and/or the fluid and cellular phases of an inflammatory response.
(§5) A reverse passive Arthus reaction is induced in the pleural cavity of male Lewis rats (150-200 g; fasted overnight prior to use) by the intravenous administration of bovine serum albumin (BSA; 4 mg/0.2 ml) followed by 30 minutes later by the injection of rabbit anti-BSA (1 mg/0.2 ml; lyophilized IgG fraction; Organon Teknika, West Chester, Pa.) into the right pleural space under halothane anesthesia. Drugs or vehicle (0.5% Tween-80) control are administered orally in a volume of 1 ml/100 g body weight at 1 hour prior to the anti-BSA. Animals are sacrificed at either the time of peak eicosanoid production (i.e. 5 minutes after anti-BSA for immunoreactive TxB2 10 minutes for immunoreactive LTB4, 20 minutes for immunoreactive LTC4) or at the time of peak neutrophil infiltration (4 hours after anti-BSA) by CO2 inhalation. The pleural cavity is then exposed, the fluid exudate removed by gentle vacuum aspiration and the volume of exudate is recorded. For the determination of cellular infiltration, the pleural cavity is rinsed with 3 ml of 0.1% EDTA in sterile saline, and the recovered wash is pooled with the exudate. Cell number is determined on a model ZBI Coulter counter. For determination of eicosanoid production, undiluted pleural exudate is microfuged and the supernatant is extracted with ethanol (8-10 times volume). Extracts are either stored at -20° C., or are evaporated to dryness under a stream of N2 and reconstituted in radioimmunoassay (RIA) buffer.
(§6) Inflammatory cells are expressed as 10^6 cells/ml, pleural exudate is expressed as ml of fluid, and the amount of eicosanoids in the pleural cavity is expressed as ng/ml of exudate. Mean±S.E.M. is determined for each group. Percent inhibition (% I) of cell number, exudate volume and eicosanoid production is calculated for vehicle-treated control groups, and the responses in drug-treated rats are then expressed as the mean % I of the control. […] Exp. Ther., 96, 99-113 (1949).

The next assay has as its system Fluid Exudation. Description: reverse passive Arthus pleurisy assay, fluid exudation. It counts as in vivo, rat (male Lewis). As to conditions: Rattus norvegicus, po, 1 hour prior to anti-BSA; standard drugs. The procedure: as §4, §5, §6
A further assay concerns TxB2. Description: reverse passive Arthus pleurisy assay, TxB2. The format is in vivo, rat (male Lewis). As to conditions: Rattus norvegicus, po, 5 min, read-out: ED50 TxB2. The method, then:
as §4, §5
(§7) Eicosanoids are quantitated by RIA according to the procedure specified by the RIA kit manufacturer (Advanced Magnetics, Cambridge, Mass.). Briefly, 100 μl of ^3 H-labeled eicosanoid and 100 μl of specific antibody are sequentially added to 100 μl of extracted pleural exudate in BGG -phosphate buffer which contains 0.01M phosphate, 0.1% bovine gamma globulin and 0.1% sodium azide at pH 7.0. Antibody-bound eicosanoid is separated from unbound eicosanoid by the addition of 750 μl of dextran (0.4%)-coated charcoal (0.4% Norit A) containing 0.1% sodium azide. The mixture is centrifuged at 2000 RPM at 5° C. for 15 minutes to pellet the charcoal and adsorbed unbound eicosanoid. Antibody-bound labeled eicosanoid is quantitated by counting in a liquid scintillation counter, and is correlated to concentration by a standard curve.
as §6

Another assay has as its system LTB4. Description: reverse passive Arthus pleurisy assay, LTB4. It counts as in vivo, rat (male Lewis). The note with it: Rattus norvegicus, po, 1 hour prior to anti-BSA; standard drugs; read-out: ED50 LTB4. The method, then: as §4, §5, §7, §6

Where two headings read alike, the source gives them in different places.

With `CC(C)Cc1ccc(C(C)C(=O)O)cc1` (centres unmarked) [Ibuprofen], the “ED50 LTC4” value in assay [1] is “Not Active”.

With `O=C(O)CCc1nc(-c2ccc(OCc3ccc4ccccc4n3)cc2)c(-c2ccccc2)o1` [Example 5, 5-Phenyl-4-[4-(2-Quinolinylmethoxy)phenyl]-2-oxazole propanoic acid], in assay [2], the inhibition at 10 µM amounted to 96%. In addition, the “% Inhibition 6-keto-PGF” value in assay [3] (10 mg/kg i.p., negative values denote potentiation) was -27%. The “% Inhibition LTC4” value in assay [1] (10 mg/kg i.p.) stood at 86%.

Turning to `NC1=NN(c2cccc(C(F)(F)F)c2)CC1` [BW755C], the ED30 in the assay with Cellular Influx worked out at 28 mg/kg; in the assay on Fluid Exudation it was 14 mg/kg. The ED50 in assay [3] (Mus musculus, po, 20 min, 1 hour prior to zymosan, standard drugs) was determined as 22 mg/kg; in the assay with TxB2 (p.o., 1 hour prior to anti-BSA, standard drugs), 18 mg/kg; with LTB4 it was 23 mg/kg.

On to `COc1ccc2c(c1)c(CC(=O)O)c(C)n2C(=O)c1ccc(Cl)cc1` [Indomethacin], for which, in the assay with TxB2, the ED50 stood at 0.16 mg/kg. The “ED50 LTC4” value in assay [1] was “Not Active”.

As usually defined, the inhibition is how much of the control response was suppressed. A lower inhibition goes with a response near the control. The ED50 is the dose that gives a 50% effect, or the effect in half of the subjects.

Source of the values: US5071988A, “Substituted benzoylbenzene-, biphenyl- and 2-oxazole-alkanoic acid derivatives” (American Home Products Corporation, priority 1991, dated 1991).
